In patent publication US9441018B2, “Gene from tidal flat metagenome and a novel protein displaying both phospholipase and lipase activities” (KOREA RESEARCH INSTITUTE OF BIOSCIENCE AND BIOTECHNOLOGY, priority 2011, dated 2016):
“And” between values parts separate entries of the source, which are not always exact repeats. Identical values can stand only once. Like-named read-outs stand apart in the source and are kept apart here.

Assays:
[1] = system: phospholipase/lipase MPIaG
Method: Particularly, enzyme activity was measured by the following two methods. […] The second method was spectrophotometric assay as standard method of the present invention. […] The increasing rate of para-nitrophenol hydrolyzed from the substrate was continuously measured at OD405. Unless informed otherwise, p-nitrophenyl caprate (C10) was used as a substrate. 1 unit (U) of enzyme was defined as the enzyme amount capable of producing 1 μmol of para-nitrophenol via hydrolysis.

[2] = system: phospholipase/lipase MPIaG; assay type: biochemical, tidal flat metagenome

Row | Compound | Enzyme activity relative value (%) ([1]; organic solvent 20%) | Enzyme activity relative value (%) ([1]; organic solvent 30%) | Enzyme activity relative value (%) ([1]; organic solvent 50%) | Enzyme activity relative value (%) ([1]; organic solvent 60%) | Enzyme activity relative value (%) ([2]; additive 1 mM) | Enzyme activity relative value (%) ([2]; additive 5 mM) | Enzyme activity relative value (%) ([2]; additive 10 mM) | also measured
1 | CO [Methanol] | 100 | 101 | 93 | 98 |  |  |  | 
2 | O=C(O)CN(CCN(CC(=O)O)CC(=O)O)CC(=O)O [EDTA, ethylenediaminetetraacetic acid] |  |  |  |  |  |  |  | effect on enzyme activities (in words) [2]: strongly inhibited
3 | [Ca+2].[Cl-].[Cl-] [CaCl2] |  |  |  |  | 466 | 1015 | 994 | increase of enzyme activities [2]: approximately 10 times
4 | [Cl-].[Cl-].[Co+2] [CoCl2] |  |  |  |  |  |  |  | Enzyme activity relative value (%) [2]: 120% and 177% and 116%
5 | O=S(=O)([O-])[O-].[Fe+2] [FeSO4] |  |  |  |  | 137 | 142 | 151 | 
6 | C[S+](C)[O-] [DMSO, dimethyl sulfoxide] | 98 | 97 | 98 | 81 |  |  |  | 
7 | CC#N [Acetonitrile] | 100 | 99 | 98 | 99 |  |  |  | 
8 | O[C@H](CS)[C@H](O)CS (racemic) [DTT, dithiothreitol] |  |  |  |  | 93 | 107 | 105 | 
9 | OCCS [2-mercaptoethanol] |  |  |  |  | 105 | 108 | 80 | 
10 | CC(C)O [2-propanol] | 101 | 97 | 96 | 99 |  |  |  | 
11 | [Cl-].[Cl-].[Mg+2] [MgCl2] |  |  |  |  | 105 | 198 | 142 | 
12 | [Cl-].[Cl-].[Zn+2] [ZnCl2] |  |  |  |  | 107 | 9 | 5 | 
13 | O=S(=O)(F)Cc1ccccc1 [PMSF, phenyl methyl sulfonyl fluoride] |  |  |  |  | 94 | 107 | 105 | 
14 | CN(C)C=O [DMF, dimethylformamide] | 99 | 100 | 93 | 98 |  |  |  | 
15 | CC(C)=O [Acetone] | 96 | 100 | 96 | 99 |  |  |  | 
16 | CCO [Ethanol] | 100 | 95 | 94 | 98 |  |  |  | 
17 | [Cl][Cu][Cl] [CuCl2] |  |  |  |  | 135 | 32 | 11 | 
18 | [Cl][Ni][Cl] [NiCl2] |  |  |  |  | 62 | 23 | 7 | 
